Data taken from patent US7396844B1, “Benzamidine derivatives” (Ajinomoto Co., Inc., priority 1997, dated 2008).
Counter-ions that a name gives are not always drawn. Like-named read-outs stand apart in the source and are kept apart here.

Assays:
human thrombin = molecular target: T1, human thrombin (Homo sapiens, UniProt P00734); assay: Determination of thrombin-inhibiting activity; assay type: biochemical; settings: for IC50: read-out: Thrombin-inhibiting activity (pIC50) (converted)
T1 construct: human thrombin (a product of SIGMA Co.); purchased SIGMA Co
Method: 130 μl of 100 mM Tris-HCl buffer adjusted to pH 8.4 was added to 10 μl of an aqueous solution of a test compound. Then 10 μl of a solution of human thrombin (a product of SIGMA Co.) adjusted to 2 units/ml with Tris-HCl buffer of pH 8.4 was added to the resultant mixture. […] The absorbance was determined and then the initial reaction rate was determined. A control was prepared in the same manner as that described above except that the solution of the compound to be tested was replaced with 10 μl of tris hydrochloride buffer adjusted to pH 8.4.

blood plasma = assay: Determination of blood anticoagulating activity by prothrombin time (PT); assay type: biochemical, human; parameters: key: -log of concentration doubling control PT; settings: Table 2; negative logarithm of concentration that elongated PT of the control to twice as long; plasma of healthy people
Method: The blood anticoagulating activity was determined by a prothrombin time (PT) determination method. The PT was determined as follows: The blood was taken from healthy people. […] The blood plasma was separated by the centrifugation. 5 μl of DMSO solution containing a test compound was added to 45 μl of the blood plasma. After the incubation at room temperature for 2 minutes, a test tube containing the blood plasma solution was placed in Sysmex CA-3000 fully automatic blood coagulation determination device (a product of Toa Medical Electronics Co., Ltd), and incubated at 37° C. for 3 minutes. […] PT was automatically determined with the device. A sample containing 5 μl of DMSO in place of the solution of the test compound was used as the control. The negative logarithm (PT2) of the concentration of the test compound which elongated PT of the control to the twice as long was determined, and employed as the index of the blood anticoagulating activity.

[1] = molecular target: T2, activated human blood coagulation factor X (Homo sapiens, UniProt P00742); assay: Determination of activity of inhibiting the activated blood coagulation factor X; assay type: biochemical; settings: for IC50: read-out: Activity of inhibiting activated blood coagulation factor X (pIC50) (converted)
T2 construct: purchased Enzyme Research Co
Method: 130 μl of 100 mM Tris-HCl buffer adjusted to pH 8.4 was added to 10 μl of an aqueous solution of a compound to be tested. Then 10 μl of a 0.5 unit/ml solution of activated human blood coagulation factor X (a product of Enzyme Research Co.) in Tris-HCl buffer hydrochloride of pH 8.4 was added to the resultant mixture. After the incubation at room temperature for 10 minutes, 50 μl of a solution of N-benzoyl-L-isoleucyl-L-glutamyl-glycyl-L-arginyl-p-nitroanilide hydrochloride (a product of Peptide Institute, Inc.) adjusted to 0.8 mM with Tris-HCl buffer (pH 8.4) was added thereto. The absorbance was determined and then the initial reaction rate was determined. A control was prepared in the same manner as that described above except that the solution of the compound to be tested was replaced with 10 μl of Tris-HCl buffer adjusted to pH 8.4.

[2] = Table 2, same manner as Example 94
[3] = Table 2, same manner as Example 93
[4] = Table 1, negative logarithm of concentration inhibiting 50% of initial rate, substrate S-2238, Tris-HCl pH 8.4
[5] = Table 1, negative logarithm of concentration inhibiting 50% of initial rate, Tris-HCl pH 8.4, room temperature

T2 sequence (P00742 235-488 limits assumed): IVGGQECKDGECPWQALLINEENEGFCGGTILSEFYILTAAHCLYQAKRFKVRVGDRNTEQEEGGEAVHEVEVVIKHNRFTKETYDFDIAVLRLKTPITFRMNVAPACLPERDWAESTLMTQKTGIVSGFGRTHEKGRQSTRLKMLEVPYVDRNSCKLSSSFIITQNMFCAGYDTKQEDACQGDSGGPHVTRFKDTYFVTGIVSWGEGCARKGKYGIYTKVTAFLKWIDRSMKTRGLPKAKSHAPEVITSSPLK
T2 sequence (P00742 41-179 partner limits assumed): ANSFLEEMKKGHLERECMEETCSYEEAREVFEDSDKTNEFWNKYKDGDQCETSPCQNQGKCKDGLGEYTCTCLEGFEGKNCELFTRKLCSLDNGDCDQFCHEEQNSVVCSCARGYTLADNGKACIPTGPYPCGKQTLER

| Compound | IC50 (human thrombin; [4]) [µM] | IC50 [1, 5] [µM] | IC50 [1, 3] [µM] | also measured |
| --- | --- | --- | --- | --- |
| N=C(N)c1ccc(C(=O)N[C@@H](COc2cccc(C(=N)N)c2)Cc2ccccc2)cc1.O=C(O)C(F)(F)F.O=C(O)C(F)(F)F [Compound of Ex. 117, N-[(1R)-2-(3-amidinophenoxy)-1-benzylethyl]-4-amidinobenzamide bistrifluoroacetate] |  |  | 0.0398 | IC50 (human thrombin; [2]): 251 µM; Blood anticoagulating activity (PT2) (blood plasma): 6.7 |
| N=C(N)c1cccc(OC[C@H](Cc2ccc(OC3CCNCC3)cc2)NS(=O)(=O)c2ccc(C(=O)O)cc2)c1.O=C(O)C(F)(F)F.O=C(O)C(F)(F)F [Compound of Ex. 167, 4-[(2S)-1-[4-(4-piperidyloxy)phenyl]-3-(3-amidinophenoxy)-2-propylsulfamoyl]benzoic acid bistrifluoroacetate] |  |  | 0.501 | IC50 (human thrombin; [2]): 126 µM; Blood anticoagulating activity (PT2) (blood plasma): 5 |
| N=C(N)c1ccc(C(=O)NCCOc2cccc(C(=N)N)c2)cc1.O=C(O)C(F)(F)F.O=C(O)C(F)(F)F [Compound of Ex. 95, N-[2-(3-amidinophenoxy)ethyl]-4-amidinobenzamide bistrifluoroacetate] |  |  | 0.316 | Blood anticoagulating activity (PT2) (blood plasma): 5.9 |
| N=C(N)c1ccc(C(=O)N[C@@H](COc2cccc(C(=N)N)c2)CC(=O)O)cc1 [Compound of Ex. 119, (3R)-3-(4-amidinobenzoylamino)-4-(3-amidinophenoxy)butanoic acid bistrifluoroacetate] |  |  | 0.0251 | IC50 (human thrombin; [2]): > 1000 µM |
| CN(C)C(=O)c1ccc(C(=O)NCCOc2cc(C(=N)N)ccc2CC(=O)C(=O)O)cc1 [Compound of Ex. 80, 3-[4-amidino-2-[2-[4-(dimethylcarbamoyl)benzoylamino]ethoxy]phenyl]-2-oxo-propionic acid trifluoroacetate] | 39.8 | 0.0126 |  |  |
| CC(=N)N1CCC(Oc2ccc(C(=O)N[C@@H](COc3cccc(C(=N)N)c3)CC(=O)O)cc2)CC1.O=C(O)C(F)(F)F.O=C(O)C(F)(F)F [Compound of Ex. 62, (3R)-4-(3-amidinophenoxy)-3-[4-(1-acetimidoyl-4-piperidyloxy)benzoylamino]butylic acid bistrifluoroacetate] |  |  |  | Thrombin-inhibiting activity (pIC50) (human thrombin; [4]): <3.3; Activity of inhibiting activated blood coagulation factor X (pIC50) [1, 5]: 7.4 |
| N=C(N)c1ccc(C(=O)N[C@H](CCC(=O)O)COc2cccc(C(=N)N)c2)cc1 [Compound of Ex. 121, (4R)-4-(4-amidinobenzoylamino)-5-(3-amidinophenoxy)pentanoic acid bistrifluoroacetate] |  |  | 0.0501 | IC50 (human thrombin; [2]): > 1000 µM |
| N=C(N)c1ccc(C(=O)NCCSc2cccc(C(=N)N)c2)cc1.O=C(O)C(F)(F)F.O=C(O)C(F)(F)F [Compound of Ex. 143, N-[2-(3-amidinophenylthio)ethyl]-4-amidinobenzamide bistrifluoroacetate] |  |  | 0.501 | Blood anticoagulating activity (PT2) (blood plasma): 5.3 |
| N=C(N)c1cccc(OCCNC(=O)c2cccc(C(=N)N)c2)c1 [Compound of Ex. 96, N-[2-(3-amidinophenoxy)ethyl]-3-amidinobenzamide bistrifluoroacetate] |  |  | 1.58 | IC50 (human thrombin; [2]): > 1000 µM |
| N=C(N)c1cccc(OCCNC(=O)c2ccc(C(=O)N3CCCC3)cc2)c1 [Compound of Ex. 9, N-[2-(3-amidinophenoxy)ethyl]-4-(1-pyrrolidinecarbonyl)benzamide trifluoroacetate] | 50.1 | 0.02 |  |  |
| N=C(N)c1ccc(C(=O)NCCCc2cccc(C(=N)N)c2)cc1.O=C(O)C(F)(F)F.O=C(O)C(F)(F)F [Compound of Ex. 144, N-[3-(3-amidinophenyl)propyl]-4-amidinobenzamide bistrifluoroacetate] |  |  | 1.58 | Blood anticoagulating activity (PT2) (blood plasma): 5 |
| CCOC(=O)C[C@H](COc1cccc(C(=N)N)c1)NC(=O)c1ccc(N2CCCC2)cc1 [Compound of Ex. 59, ethyl (3R)-4-(3-amidinophenoxy)-3-[4-(pyrrolidine-1-yl)benzoylamino]butyrate trifluoroacetate] | 15.8 | 0.0398 |  |  |
| N=C(N)c1ccc(C(=O)N(CCOc2cccc(C(=N)N)c2)Cc2ccccc2)cc1 [Compound of Ex. 114, N-[2-(3-amidinophenoxy)ethyl]-N-phenylmethyl-4-amidinobenzamide bistrifluoroacetate] |  |  | 0.0501 | IC50 (human thrombin; [2]): 79.4 µM |
| N=C(N)c1ccc(CC(=O)C(=O)O)c(OCCNC(=O)c2ccc(CC3CCNCC3)cc2)c1 [Compound of Ex. 81, 3-[4-amidino-2-[2-[4-(4-piperidylmethyl)benzoylamino]ethoxy]phenyl]-2-oxopropionic acid bistrifluoroacetate] | 31.6 | 0.0794 |  |  |
| N=C(N)c1ccc(CC(=O)C(=O)O)c(OCCNC(=O)c2ccc(N3CCCC3)cc2)c1 [Compound of Ex. 82, 3-[4-amidino-2-[2-[4-(pyrrolidine-1-yl)benzoylamino]ethoxy]phenyl]-2-oxopropionic acid trifluoroacetate] | 6.31 | 0.0251 |  |  |
| CC(=N)N1CCC(Oc2ccc(C(=O)NCCOc3cc(C(=N)N)ccc3CC(=O)C(=O)O)cc2)CC1 [Compound of Ex. 79, 3-[4-amidino-2-[2-[4-(1-acetimidoyl-4-piperidyloxy)benzoylamino]ethoxy]phenyl]-2-oxopropionic acid bistrifluoroacetate] | 25.1 | 0.02 |  |  |

Second part, led by results:

| IC50 (human thrombin; [4]) [µM] | IC50 [1, 5] [µM] | Compound | IC50 [1, 3] [µM] | also measured |
| --- | --- | --- | --- | --- |
| > 1000 | 0.0251 | N=C(N)c1cccc(OC[C@@H](CC(=O)O)NC(=O)c2ccc(N3CCCC3)cc2)c1 [Compound of Ex. 58, (3R)-4-(3-amidinophenoxy)-3-[4-(pyrrolidine-1-yl)benzoylamino]butyric acid trifluoroacetate] |  |  |
| 316 | 0.316 | N=C(N)c1ccc(NC(=O)CCCOc2cccc(C(=N)N)c2)cc1 [Compound of Ex. 67, 4-(3-amidinophenoxy)-N-(4-amidinophenyl)butyramide bistrifluoroacetate] |  |  |
| > 1000 | 0.0126 | N=C(N)Nc1ccc(C(=O)N[C@@H](COc2cccc(C(=N)N)c2)CC(=O)O)cc1 [Compound of Ex. 57, (3R)-4-(3-amidinophenoxy)-3-[(4-guanidinobenzoyl)amino]butyric acid bistrifluoroacetate] |  |  |
| > 251 | 0.0398 | N=C(N)c1ccc(C(=O)N[C@@H](COc2cccc(C(=N)N)c2)Cc2ccc(C(=O)O)cc2)cc1 [Compound of Ex. 90, 4-[(2R)-2-(4-amidinobenzoylamino)-3-(3-amidinophenoxy)propyl]benzoic acid bistrifluoroacetate] |  |  |
| > 1000 | 0.158 | N=C(N)c1ccc(C(=O)N[C@@H](CCC(=O)O)COc2cccc(C(=N)N)c2)cc1 [Compound of Ex. 83, (4S)-4-(4-amidinobenzoylamino)-5-(3-amidinophenoxy)pentanoic acid bistrifluoroacetate] |  |  |
| 398 | 0.398 | N=C(N)c1ccc(C(=S)NCCOc2cccc(C(=N)N)c2)cc1 [Compound of Ex. 1, N-[2-(3-amidinophenoxy)ethyl]-4-amidinobenzthioamide bistrifluoroacetate] |  |  |
| 25.1 | 0.0501 | CCOC(=O)C[C@H](COc1cccc(C(=N)N)c1)NC(=O)c1ccc(-c2ccccc2)cc1 [Compound of Ex. 54, ethyl (3R)-3-[(biphenyl-4-carbonyl)amino]-4-(3-amidinophenoxy)butyrate trifluoroacetate] |  |  |
| > 1000 | 0.0501 | N=C(N)c1ccc(C(=O)N[C@H](CCOc2cccc(C(=N)N)c2)C(=O)O)cc1 [Compound of Ex. 92, (2R)-2-(4-amidinobenzoylamino)-4-(3-amidinophenoxy)butanoic acid bistrifluoroacetate] |  |  |
